Reference: PubChem BioAssay (NCI)
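96-well plates; 48 h exposure; 5 concentrations. Endpoints by linear interpolation between flanking doses. Not reached: highest tested concentration assigned. TGI: total growth inhibition.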 Where a SMILES comes first, the peptide text is derived from it. [ ]: non-standard residue; d: D form. The star is where a group is joined. ξ: configuration not given here. NMeY = CN[C@@H](Cc1ccc(O)cc1)C(=O)O; Cbz = O=C(OCc1ccccc1)*; ξA = CC(N)C(=O)O

What was measured:
Assay in all cases: NCI anticancer screen, dose series, 48 h
NCI-H23 lung = system: NCI-H23 lung
MDA-MB-231 breast = system: MDA-MB-231 breast
HS 578T breast = system: HS 578T breast
HCT-116 colon = system: HCT-116 colon
SNB-75 CNS = system: SNB-75 CNS
A498 renal = system: A498 renal
PC-3 prostate = system: PC-3 prostate
T-47D breast = system: T-47D breast
CCRF-CEM leukemia = system: CCRF-CEM leukemia
SK-MEL-28 melanoma = system: SK-MEL-28 melanoma
TK-10 renal = system: TK-10 renal

Row | SMILES | TGI (NCI-H23 lung) [µM] | TGI (MDA-MB-231 breast) [µM] | TGI (HS 578T breast) [µM] | TGI (HCT-116 colon) [µM] | TGI (SNB-75 CNS) [µM] | TGI (A498 renal) [µM] | TGI (PC-3 prostate) [µM] | TGI (T-47D breast) [µM] | TGI (CCRF-CEM leukemia) [µM] | TGI (SK-MEL-28 melanoma) [µM] | TGI (TK-10 renal) [µM]
1 | CC(=Nc1ccc(Cl)cc1)c1ccncc1 | > 100 | > 100 | > 100 | > 100 | > 100 | > 100 | > 100 | > 100 | > 100 | > 100 | –
2 | CC/C(Cl)=N\OC(=O)Nc1ccc(F)c(Cl)c1 | 45.7 | 41.5 | > 100 | 35.3 | 26.2 | 30.8 | 29.6 | 21.3 | 4.91 | 30.1 | 31.3
3 | COc1ccc(C[C@@H](C(=O)N[C@@H](C)C(N)=O)N(C)C(=O)[C@@H]2CCCN2C(=O)[C@H](CC(C)C)NC(=O)C(C)NC(=O)OCc2ccccc2)cc1 (some centres not stated) (Cbz-[ξA]LP[NMeY](Me)A-NH2) | > 100 | > 100 | > 100 | > 100 | > 100 | > 100 | > 100 | > 100 | > 100 | > 100 | > 100
4 | COc1ccc(/C(C)=C2\CCCN(Cc3ccccc3)C2)cc1 | 79.6 | 57.9 | 29.2 | – | 73.1 | > 100 | 62.7 | 77 | 62.2 | 58.4 | > 100
5 | CNC(=O)O/N=C1\N(C)CN(c2ccccc2)C12CCN(CCCC(=O)c1ccc(F)cc1)CC2 | > 100 | > 100 | > 100 | > 100 | 24.3 | > 100 | > 100 | > 100 | > 100 | > 100 | > 100
6 | Cc1nc(C)c(N2CCN(Cc3ccccc3)CC2)c(=O)[nH]1 | > 100 | > 100 | > 100 | > 100 | – | > 100 | > 100 | > 100 | > 100 | > 100 | > 100
7 | CCOC(=O)/C(=C\c1c[nH]c2ccccc12)P(=O)(OCC)OCC | 71.5 | 68.4 | > 100 | > 100 | 75.6 | 76.1 | 66.6 | > 100 | 66.9 | 94.3 | > 100
8 | COC(C)=NCCC1=CCCCC1 | > 100 | > 100 | > 100 | > 100 | > 100 | > 100 | > 100 | > 100 | – | > 100 | > 100
9 | COc1cccc(CCn2c(N)c(-c3cc(Cl)cc(Cl)c3)c3ccc([N+](=O)[O-])cc3c2=O)c1 | 5.99 | 61.1 | > 38 | 12.7 | > 100 | > 28.8 | > 61.9 | > 24.8 | – | > 100 | > 100
10 | COC1(OC)CCN(Cc2ccccc2)C1=O | 43.8 | 38.8 | > 100 | 13.9 | 30.6 | 44 | 27.8 | 18.8 | 6.3 | 23.3 | 29.7
11 | Cc1n[nH]c(=O)n1/N=C/c1ccco1 | > 100 | > 100 | > 100 | > 100 | > 100 | > 100 | > 100 | > 100 | > 100 | > 100 | –
12 | O=[N+]([O-])C(C(Cl)=C(Cl)Cl)=C(N1CCCCC1)N1CCCCC1 | > 100 | > 100 | 70.8 | > 100 | > 100 | > 100 | > 100 | > 100 | > 100 | > 100 | > 100
13 | NC(=O)C1=C(O)[C@@]2(O)C(=O)C3=C(O)c4c(O)cccc4CC3C[C@H]2CC1=O (some centres not stated) | 8.89 | 11.1 | 13.7 | 12 | 8.35 | 12.9 | 9.71 | 23.8 | 10.4 | 22.8 | 43.7
14 | CC1=CC2(C)C=C[C@@H]1C(=O)[C@@]1(C)CC[C@@](O)(C(C)C)[C@H]1CC2 | 50.4 | 35.5 | 54.9 | 32.2 | 58.3 | 45.6 | 51.9 | 88 | 53.4 | 41.7 | > 100
15 | Nc1ncnc2c1ccn2CC#CCO | > 100 | > 100 | > 100 | > 100 | > 100 | > 100 | > 100 | > 100 | > 100 | > 100 | > 100
16 | COc1ccc2nc3ccc(OC)cc3c(S(=O)Cc3ccccc3)c2c1 (configuration not stated) | 37.5 | 30.8 | 33.8 | 6.3 | 28.8 | 38.9 | 27.2 | 4.87 | > 22.1 | 27.2 | 19.4
17 | COc1cc(-c2nc(N)c(C#N)c3c2CCS(=O)(=O)c2ccc(C)cc2-3)cc(OC)c1OC | > 100 | 56.3 | > 100 | > 100 | 75.9 | 69.8 | > 100 | > 100 | > 100 | > 100 | 70
18 | CCCCCN1C(=O)C(Cc2ccccc2)N=C(c2ccc(O)cc2)c2cc(Cl)ccc21 (configuration not stated) | 17.7 | 35.9 | 32.4 | 21.5 | 23.7 | > 48.4 | 27.3 | 12.4 | > 100 | 29.7 | 31.2
19 | CC(C)(C)OC(=O)N(O)CCCn1cnc2c(NC3CC3)ncnc21 | > 100 | > 100 | > 100 | > 100 | > 100 | > 100 | > 100 | > 100 | > 100 | > 100 | > 100
20 | C=CC(C)(C)NC(C(=O)N1CCC[C@H]1c1nc(-c2nc(C(=O)OCC=C(C)C)c(C)o2)c(C)o1)C(C)C (some centres not stated) | > 100 | > 100 | > 100 | > 100 | > 100 | > 100 | > 100 | > 100 | > 100 | > 100 | > 100
21 | CCC1=CC(OCc2ccccc2)C(CCN(Cc2ccccc2)C(=O)OCc2ccccc2)C1 (configuration not stated) | 33.4 | 62.6 | 32.6 | – | 22.6 | 48.4 | 42.9 | 22.8 | – | 37.8 | 30.9
22 | O=C1CSC(c2ccccc2)N1c1ccc(-c2ccc(-n3c(-c4ccccc4)nc4ccccc4c3=O)cc2)cc1 (configuration not stated) | > 100 | > 100 | > 100 | – | – | > 100 | > 100 | > 100 | > 100 | > 100 | > 100
23 | CC(CC(=O)N1C2CC3CCC2(CS1(=O)=O)C3(C)C)[Si](C)(C)C (configuration not stated) | > 100 | > 100 | > 100 | > 100 | > 100 | – | > 100 | > 100 | > 100 | > 100 | > 100
24 | CC(=O)Oc1ccc2c(c1)[nH]c1c3ccc(OC(C)=O)cc3oc(=O)c21 | > 100 | 88.2 | > 100 | 78.1 | > 100 | – | > 100 | 48.9 | 98.8 | > 100 | > 100
25 | C1CSCCSCCSCCSCCS1 | > 100 | > 100 | > 100 | > 100 | > 100 | > 100 | > 100 | > 100 | – | > 100 | > 100
26 | O=C(Nc1ccccc1)OCCN=c1c2ccccc2ccc2ccccc12 | > 100 | > 100 | 51.3 | 35.9 | 80.9 | – | 49.4 | 43.5 | 50.4 | 60.9 | > 100
27 | O=C1CC(n2ccnc2)c2c(Cl)sc(Cl)c21 (configuration not stated) | 30.9 | 36.5 | > 78.8 | 29.5 | 52 | – | 36.7 | 53.2 | > 22.6 | > 54.7 | 45.1
28 | N#Cc1c(C#N)c(SSc2c(C#N)c(C#N)c(N)n2-c2cccc3ccccc23)n(-c2cccc3ccccc23)c1N | > 63.2 | 40.8 | > 57.6 | 14.1 | 38.7 | > 63.6 | 35.5 | 5.47 | – | > 100 | 40.9
29 | CCOC(=O)c1ccc(N=C2Sc3nc4ccccc4n3C2=Nc2ccc(C(=O)OCC)cc2)cc1 | 83.8 | 52.5 | 75.5 | 19.2 | – | 81.4 | > 100 | > 100 | > 100 | > 100 | 32.6
30 | CCOC(=O)/C=C(/C(=O)OCC)n1ccc(=O)n(Cc2cn(CCCCOC(C)=O)nn2)c1=O | > 100 | > 100 | > 100 | > 100 | > 100 | – | > 100 | > 100 | 35.3 | > 100 | > 100
